# Experiments:
# IL-6 = test: In vitro immunomodulatory assay, IL-6; format: cell-based, human; settings: HCT-116 cells, 24 h, at the IC50 concentration
# [1] = tested on: MCF-7 cells (breast cancer); test: MTT anti-proliferative assay, MCF-7; format: cell-based; settings: Homo sapiens, MCF7, 48 h, read-out: In vitro cytotoxicity IC50 MCF-7
# [2] = tested on: HCT-116 cells (colon cancer); test: MTT anti-proliferative assay, HCT-116; format: cell-based; settings: Homo sapiens, HCT-116, 48 h, read-out: In vitro cytotoxicity IC50 HCT 116
Structure (SMILES),Pro-inflammatory factors inhibition IL-6 (IL-6) [pg per mL %],IC50 [1] [µM],IC50 [2] [µM]
C[C@@H]1C[C@H]2[C@@H]3CCC4=CC(=O)C=C[C@]4(C)[C@@]3(F)[C@@H](O)C[C@]2(C)[C@@]1(O)C(=O)CO [Dexamethasone],93.15,–,–
CNC(=O)c1cc(Oc2ccc(NC(=O)Nc3ccc(Cl)c(C(F)(F)F)c3)cc2)ccn1 [Sorafenib],–,11.83 ± 0.07,8.96 ± 0.05

# Reference: paper PMC10363774 (RSC Advances, 2023)
